Laboratory results published in ChEMBL document CHEMBL4837192, “The Bisindole Alkaloids Angustilongines M and A from Alstonia penangiana Induce Mitochondrial Apoptosis and G0/G1 Cell Cycle Arrest in HT-29 Cells through Promotion of Tubulin Polymerization” (J Nat Prod, 2021).
Calls of active or inactive are those of the source. No cut-off for these calls is given here.

Columns and labels:
HT-29 [1] = experiment: Induction of cell cycle arrest in human HT-29 cells assessed as accumulation of cells at S phase at 2.7 uM measured after 24 hrs by propidium iodide staining based flow cytometry analysis (Rvb= 35.52%); format: functional
[2] = Selectivity index, ratio of IC50 for human CCD-18Co cells to IC50 for human HT-29 cells assessed as cell growth inhibition measured after 48 hrs by MTT assay
HT-29 [3] = experiment: Induction of cell cycle arrest in human HT-29 cells assessed as accumulation of cells at G1 phase at 2.7 uM measured after 48 hrs by propidium iodide staining based flow cytometry analysis (Rvb= 55.39%); format: functional
HT-29 [4] = experiment: Induction of cell cycle arrest in human HT-29 cells assessed as accumulation of cells at S phase at 2.7 uM measured after 48 hrs by propidium iodide staining based flow cytometry analysis (Rvb= 35.52%); format: functional
HCT-116 = experiment: Cytotoxicity against human HCT-116 cells assessed as cell growth inhibition measured after 72 hrs by MTT assay; format: functional, cell-based; conditions: HCT-116, 72 h
HT-29 [5] = experiment: Cytotoxicity against human HT-29 cells assessed as cell growth inhibition measured after 48 hrs by MTT assay; format: functional, cell-based; conditions: HT-29, 48 h
KB [6] = experiment: Cytotoxicity against human vincristine-sensitive KB cells assessed as cell growth inhibition measured after 72 hrs by MTT assay; format: functional, cell-based
CCD-18Co [7] = experiment: Cytotoxicity against human CCD-18Co cells assessed as cell growth inhibition measured after 48 hrs by MTT assay; format: cell-based
HT-29 [8] = experiment: Induction of cell cycle arrest in human HT-29 cells assessed as accumulation of cells at G2 phase at 2.7 uM measured after 24 hrs by propidium iodide staining based flow cytometry analysis (Rvb= 9.09%); format: functional
HT-29 [9] = experiment: Induction of mitochondrial membrane potential loss in human HT-29 cells assessed as apoptotic cells at 2.7 uM measured after 72 hrs by JC-1 staining based flow cytometry analysis (Rvb= 8.6%); format: functional
HT-29 [10] = experiment: Induction of apoptosis in human HT-29 cells assessed as early apoptotic cells at 2.7 uM measured after 48 hrs by FITC-annexin V/propidium iodide- double staining based flow cytometry analysis (Rvb= 12.8%); format: functional
HT-29 [11] = experiment: Induction of mitochondrial membrane potential loss in human HT-29 cells assessed as healthy cells at 2.7 uM measured after 24 hrs by JC-1 staining based flow cytometry analysis (Rvb= 91.4%); format: functional
HT-29 [12] = experiment: Antiproliferative activity against human HT-29 cells cultured as 3D spheroids assessed as inhibition of spheroid formation measured after 48 hrs by MTT assay; format: functional, cell-based; conditions: HT-29, 48 h
HT-29 [13] = experiment: Induction of mitochondrial membrane potential loss in human HT-29 cells assessed as healthy cells at 2.7 uM measured after 72 hrs by JC-1 staining based flow cytometry analysis (Rvb= 91.4%); format: functional
HT-29 [14] = experiment: Induction of cell cycle arrest in human HT-29 cells assessed as accumulation of cells at G2 phase at 2.7 uM measured after 48 hrs by propidium iodide staining based flow cytometry analysis (Rvb= 9.09%); format: functional
KB [15] = experiment: Cytotoxicity against human vincristine-resistant KB cells assessed as cell growth inhibition measured after 72 hrs by MTT assay; format: functional, cell-based
HT-29 [16] = experiment: Induction of apoptosis in human HT-29 cells assessed as activation of caspase-3 at 2.7 uM measured after 24 hrs by flow cytometry analysis (Rvb= 2.2%); format: functional
HT-29 [17] = experiment: Induction of apoptosis in human HT-29 cells assessed as dead cells at 2.7 uM measured after 72 hrs by FITC-annexin V/propidium iodide- double staining based flow cytometry analysis (Rvb= 0.4%); format: functional
HT-29 [18] = experiment: Induction of apoptosis in human HT-29 cells assessed as activation of caspase-3 at 2.7 uM measured after 48 hrs by flow cytometry analysis (Rvb= 2.2%); format: functional
HT-29 [19] = experiment: Antiproliferative activity in human HT-29 cells cultured as 3D spheroids assessed as gradual disaggregation of peripheral cells at IC50 measured after 48 hrs; format: functional, cell-based
HT-29 [20] = experiment: Induction of apoptosis in human HT-29 cells assessed as dead cells at 2.7 uM measured after 24 hrs by FITC-annexin V/propidium iodide- double staining based flow cytometry analysis (Rvb= 0.4%); format: functional
HT-29 [21] = experiment: Antiproliferative activity in human HT-29 cells cultured as 3D spheroids assessed as reduction in 3D structure of spheroid morphology at IC50 measured after 48 hrs; format: functional, cell-based
HT-29 [22] = experiment: Induction of cell cycle arrest in human HT-29 cells assessed as accumulation of cells at G1 phase at 2.7 uM measured after 24 hrs by propidium iodide staining based flow cytometry analysis (Rvb= 55.39%); format: functional
PC-3 = experiment: Cytotoxicity against human PC-3 cells assessed as cell growth inhibition measured after 72 hrs by MTT assay; format: functional, cell-based; conditions: PC-3, 72 h
HT-29 [23] = experiment: Induction of mitochondrial membrane potential loss in human HT-29 cells assessed as healthy cells at 2.7 uM measured after 48 hrs by JC-1 staining based flow cytometry analysis (Rvb= 91.4%); format: functional
HT-29 [24] = experiment: Anticlonogenic activity against human HT-29 cells assessed as inhibition of colony formation measured after 6 days by methylene blue staining based assay; format: functional, cell-based; conditions: dose 1.35-2.7 µM, time 6.0 day
HT-29 [25] = experiment: Induction of apoptosis in human HT-29 cells assessed as early apoptotic cells at 2.7 uM measured after 24 hrs by FITC-annexin V/propidium iodide- double staining based flow cytometry analysis (Rvb= 12.8%); format: functional
MCF7 = experiment: Cytotoxicity against human MCF7 cells assessed as cell growth inhibition measured after 72 hrs by MTT assay; format: functional, cell-based; conditions: MCF7, 72 h
A549 = experiment: Cytotoxicity against human A549 cells assessed as cell growth inhibition measured after 72 hrs by MTT assay; format: functional, cell-based; conditions: A549, 72 h
HT-29 [26] = experiment: Induction of cell cycle arrest in human HT-29 cells assessed as accumulation of cells at G1 phase at 2.7 uM measured after 72 hrs by propidium iodide staining based flow cytometry analysis (Rvb= 55.39%); format: functional
HT-29 [27] = experiment: Induction of apoptosis in human HT-29 cells assessed as late apoptotic cells at 2.7 uM measured after 24 hrs by FITC-annexin V/propidium iodide- double staining based flow cytometry analysis (Rvb= 3.0%); format: functional
HT-29 [28] = experiment: Induction of apoptosis in human HT-29 cells assessed as late apoptotic cells at 2.7 uM measured after 72 hrs by FITC-annexin V/propidium iodide- double staining based flow cytometry analysis (Rvb= 3.0%); format: functional
HT-29 [29] = experiment: Induction of cell cycle arrest in human HT-29 cells assessed as accumulation of cells at G2 phase at 2.7 uM measured after 72 hrs by propidium iodide staining based flow cytometry analysis (Rvb= 9.09%); format: functional
CCD-18Co [30] = experiment: Cytotoxicity against human CCD-18Co cells assessed as cell growth inhibition measured after 72 hrs by MTT assay; format: cell-based
HT-29 [31] = experiment: Induction of apoptosis in human HT-29 cells assessed as dead cells at 2.7 uM measured after 48 hrs by FITC-annexin V/propidium iodide- double staining based flow cytometry analysis (Rvb= 0.4%); format: functional
HT-29 [32] = experiment: Induction of apoptosis in human HT-29 cells assessed as early apoptotic cells at 2.7 uM measured after 72 hrs by FITC-annexin V/propidium iodide- double staining based flow cytometry analysis (Rvb= 12.8%); format: functional
HT-29 [33] = experiment: Induction of apoptosis in human HT-29 cells assessed as activation of caspase-3 at 2.7 uM measured after 72 hrs by flow cytometry analysis (Rvb= 2.2%); format: functional
HT-29 [34] = experiment: Induction of apoptosis in human HT-29 cells assessed as late apoptotic cells at 2.7 uM measured after 48 hrs by FITC-annexin V/propidium iodide- double staining based flow cytometry analysis (Rvb= 3.0%); format: functional
HT-29 [35] = experiment: Induction of apoptosis in human HT-29 cells assessed as viable cells at 2.7 uM measured after 72 hrs by FITC-annexin V/propidium iodide- double staining based flow cytometry analysis (Rvb= 83.8%); format: functional; conditions: read-out: Activity
Tubulin (Homo sapiens) = Tubulin (Homo sapiens) (UniProt P68371+Q9H4B7+P0DPH7+P68366+Q13509+Q71U36+P04350+Q3ZCM7+P07437+P68363+Q9BQE3+Q6PEY2+Q13885+Q9BVA1+Q9BUF5); experiment: Induction of tubulin polymerization in human HT-29 cells assessed as stabilization of microtubules at 10 uM by spectrophotometric analysis; format: cell-based
HT-29 [36] = experiment: Cytotoxicity against human HT-29 cells assessed as cell growth inhibition measured after 72 hrs by MTT assay; format: functional, cell-based; conditions: HT-29, 72 h
HT-29 [37] = experiment: Induction of apoptosis in human HT-29 cells assessed as viable cells at 2.7 uM measured after 24 hrs by FITC-annexin V/propidium iodide- double staining based flow cytometry analysis (Rvb= 83.8%); format: functional; conditions: read-out: Activity
HT-29 [38] = experiment: Induction of cell cycle arrest in human HT-29 cells assessed as accumulation of cells at S phase at 2.7 uM measured after 72 hrs by propidium iodide staining based flow cytometry analysis (Rvb= 35.52%); format: functional
HT-29 [39] = experiment: Induction of mitochondrial membrane potential loss in human HT-29 cells assessed as apoptotic cells at 2.7 uM measured after 24 hrs by JC-1 staining based flow cytometry analysis (Rvb= 8.6%); format: functional
HT-29 [40] = experiment: Induction of apoptosis in human HT-29 cells assessed as viable cells at 2.7 uM measured after 48 hrs by FITC-annexin V/propidium iodide- double staining based flow cytometry analysis (Rvb= 83.8%); format: functional; conditions: read-out: Activity
HT-29 [41] = experiment: Induction of mitochondrial membrane potential loss in human HT-29 cells assessed as apoptotic cells at 2.7 uM measured after 48 hrs by JC-1 staining based flow cytometry analysis (Rvb= 8.6%); format: functional
MDA-MB-231 = experiment: Cytotoxicity against human MDA-MB-231 cells assessed as cell growth inhibition measured after 72 hrs by MTT assay; format: functional, cell-based; conditions: MDA-MB-231, 72 h

In the case of C/C=C1/CN2[C@H]3C[C@@H]1[C@@H](CO)[C@@H]2Cc1c3n(C)c2ccc3c(c12)[C@H](C)[C@@H]1[C@@H](OC[C@@H]2[C@H]1C[C@H]1c4c(c5ccccc5n4C)C[C@@H]2N1C)O3, the Activity (HT-29 [1]) is reported as 19.88%, the “Ratio IC50” value [2] is reported as 5.32 and the Activity (HT-29 [3]) is reported as 66.11%. It also gave an Activity (HT-29 [4]) of 21.76%, an IC50 (HCT-116) of 4.7 µM and an IC50 (HT-29 [5]) of 2.7 µM. For the same compound, the IC50 (KB [6]) was 5 µM, the IC50 (CCD-18Co [7]) was 14.1 µM and the Activity (HT-29 [8]) was 14.56%. The Activity (HT-29 [9]) was 63.4%, the Activity (HT-29 [10]) was 32% and the Activity (HT-29 [11]) was 90.9%. For the same compound, the IC50 (HT-29 [12]) was 3.8 µM, the Activity (HT-29 [13]) was 36.6% and the Activity (HT-29 [14]) was 12.12%. It also gave an IC50 (KB [15]) of 7.6 µM, an Activity (HT-29 [16]) of 1.9% and an Activity (HT-29 [17]) of 0.4%. The Activity (HT-29 [18]) was 26%, the Activity (HT-29 [19]) was “Active” and the Activity (HT-29 [20]) was 0.9%. The Activity (HT-29 [21]) was “Active”, the Activity (HT-29 [22]) was 65.56% and the IC50 (PC-3) was 6.1 µM. For the same compound, the Activity (HT-29 [23]) was 63.9%, the Activity (HT-29 [24]) was “Dose-Dependent Effect” and the Activity (HT-29 [25]) was 8.7%. For the same compound, the IC50 (MCF7) was over 10 µM, the IC50 (A549) was 2.1 µM and the Activity (HT-29 [26]) was 67.94%. For the same compound, the Activity (HT-29 [27]) was 12.8%, the Activity (HT-29 [28]) was 41.6% and the Activity (HT-29 [29]) was 7.67%. The IC50 (CCD-18Co [30]) was over 10 µM, the Activity (HT-29 [31]) was 0.1% and the Activity (HT-29 [32]) was 40.3%. For the same compound, the Activity (HT-29 [33]) was 67.8%, the Activity (HT-29 [34]) was 7.1% and the viability at 2.7 µM (HT-29 [35]) was 17.7%. The Activity (Tubulin (Homo sapiens)) was “Active”, the IC50 (HT-29 [36]) was 0.2 µM and the viability at 2.7 µM (HT-29 [37]) was 77.6%. For the same compound, the Activity (HT-29 [38]) was 24.39%, the Activity (HT-29 [39]) was 9.1% and the viability at 2.7 µM (HT-29 [40]) was 60.8%. It also gave an Activity (HT-29 [41]) of 36.1% and an IC50 (MDA-MB-231) of 5.9 µM.
